The supplement of paper PMC11451515

System: SEM cells
Assay: cell viability relative to DMSO control; higher = less cytotoxic
Settings: 48 h
Method in brief: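 Viability values are per-plate percentages of DMSO wells, with background from cell-free wells. Library compounds in DMSO were pin-dosed, in an 11-point threefold series from 47 μM to 0.79 nM, onto NOMO1 or SEM (500 cells/well) or P12-Ichikawa (1000 cells/well) leukemia cells in 1536-well plates (5 μl). Those cells had been adapted for at least four passages in each medium, and CellTiter-Glo One luminescence was read after 48 h at 37°C.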

[1] = HPLM + 10% dialyzed FBS, 0.000781 µM
[2] = HPLM + 10% dialyzed FBS, 0.00234 µM
[3] = HPLM + 10% dialyzed FBS, 0.00702 µM
[4] = HPLM + 10% dialyzed FBS, 0.0211 µM
[5] = HPLM + 10% dialyzed FBS, 0.0632 µM
[6] = HPLM + 10% dialyzed FBS, 0.19 µM
[7] = HPLM + 10% dialyzed FBS, 0.569 µM
[8] = HPLM + 10% dialyzed FBS, 1.71 µM
[9] = HPLM + 10% dialyzed FBS, 5.12 µM
[10] = HPLM + 10% dialyzed FBS, 15.4 µM
[11] = HPLM + 10% dialyzed FBS, 46.1 µM
[12] = RPMI 5 mM glucose + 10% FBS, 0.000781 µM
[13] = RPMI 5 mM glucose + 10% FBS, 0.00234 µM
[14] = RPMI 5 mM glucose + 10% FBS, 0.00702 µM
[15] = RPMI 5 mM glucose + 10% FBS, 0.0211 µM
[16] = RPMI 5 mM glucose + 10% FBS, 0.0632 µM
[17] = RPMI 5 mM glucose + 10% FBS, 0.19 µM
[18] = RPMI 5 mM glucose + 10% FBS, 0.569 µM
[19] = RPMI 5 mM glucose + 10% FBS, 1.71 µM
[20] = RPMI 5 mM glucose + 10% FBS, 5.12 µM
[21] = RPMI 5 mM glucose + 10% FBS, 15.4 µM
[22] = RPMI 5 mM glucose + 10% FBS, 46.1 µM
[23] = RPMI 5 mM glucose + 10% dialyzed FBS, 0.000781 µM
[24] = RPMI 5 mM glucose + 10% dialyzed FBS, 0.00234 µM
[25] = RPMI 5 mM glucose + 10% dialyzed FBS, 0.00702 µM
[26] = RPMI 5 mM glucose + 10% dialyzed FBS, 0.0211 µM
[27] = RPMI 5 mM glucose + 10% dialyzed FBS, 0.0632 µM
[28] = RPMI 5 mM glucose + 10% dialyzed FBS, 0.19 µM
[29] = RPMI 5 mM glucose + 10% dialyzed FBS, 0.569 µM
[30] = RPMI 5 mM glucose + 10% dialyzed FBS, 1.71 µM
[31] = RPMI 5 mM glucose + 10% dialyzed FBS, 5.12 µM
[32] = RPMI 5 mM glucose + 10% dialyzed FBS, 15.4 µM
[33] = RPMI 5 mM glucose + 10% dialyzed FBS, 46.1 µM

Structure (SMILES) | cell viability [1] [%] | cell viability [2] [%] | cell viability [3] [%] | cell viability [4] [%] | cell viability [5] [%] | cell viability [6] [%] | cell viability [7] [%] | cell viability [8] [%] | cell viability [9] [%] | cell viability [10] [%] | cell viability [11] [%] | cell viability [12] [%] | cell viability [13] [%] | cell viability [14] [%] | cell viability [15] [%] | cell viability [16] [%] | cell viability [17] [%] | cell viability [18] [%] | cell viability [19] [%] | cell viability [20] [%] | cell viability [21] [%] | cell viability [22] [%] | cell viability [23] [%] | cell viability [24] [%] | cell viability [25] [%] | cell viability [26] [%] | cell viability [27] [%] | cell viability [28] [%] | cell viability [29] [%] | cell viability [30] [%] | cell viability [31] [%] | cell viability [32] [%] | cell viability [33] [%]
c1ccc(CNc2nc(N3CCOc4ccccc43)nc3c2CCCC3)cc1 | 87 | 94.6 | 88.7 | 96.9 | 102 | 109 | 93.3 | 106 | 98.5 | 89.9 | 83.2 | 91 | 88.6 | 87 | 89.4 | 101 | 96.2 | 89.5 | 95.9 | 91.4 | 77.7 | 71 | 75 | 91.3 | 96.5 | 96.8 | 95.5 | 103 | 106 | 108 | 94.5 | 82.7 | 82.9
O=C\1N(N\C=C1[N]2C=CN=N2)C3=NC=NC(=C3)N4CCOCC4 | 58.1 | 74.2 | 66.2 | 69.5 | 56 | 46.9 | 20.1 | 36.9 | 21.7 | 15.8 | 12.1 | 56.6 | 102 | 108 | 95.5 | 46.8 | 28.6 | 13.6 | 13.3 | 19.2 | 14.5 | 16.8 | 52.3 | 77.4 | 74.1 | 69.3 | 66.5 | 42.8 | 17.3 | 32.8 | 19.5 | 19.9 | 16.7
Nc1nc(N)c2nc(-c3cccc(O)c3)c(-c3cccc(O)c3)nc2n1 | 110 | 120 | 120 | 135 | 111 | 125 | 104 | 106 | 94.5 | 35 | 8.06 | 124 | 125 | 125 | 129 | 103 | 118 | 120 | 110 | 108 | 73.8 | 13.8 | 119 | 99.4 | 129 | 106 | 105 | 114 | 98.8 | 96.5 | 97.2 | 61 | 18.2
Cc1cnc(C(=O)O)c[n+]1[O-] |  |  |  |  |  |  |  |  |  |  |  | 77.1 | 88.9 | 81 | 87 | 85.7 | 92.1 | 101 | 87.3 | 99.5 | 87.8 | 72.6 | 121 | 118 | 92.7 | 112 | 135 | 126 | 133 | 128 | 120 | 114 | 99.3
